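Method: 48-hour compound exposure of cells in 96-well plates, five concentrations, linear interpolation of endpoints. Here, GI50 denotes the concentration required for 50% inhibition of growth. TGI marks complete inhibition of growth.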 *1 amine or outer side, *2 acyl side, *3 side chain or, on linkers, in order; H or OH if unused. Where a SMILES comes first, the peptide text is derived from it. [ ]: non-standard residue; d: D form. X33 = C=CCC(O[*:1])C(=O)[*:2]; NMeV = CN[CH](C(=O)O)C(C)C; NMeA = CN[CH](C)C(=O)O; βAla = NCCC(=O)O
Columns and labels:
Experiment in all cases: NCI anticancer screen, dose series, 48 h
[1] = tested on: CCRF-CEM leukemia
[2] = tested on: HOP-62 NSCLC
[3] = tested on: HT29 colon
[4] = tested on: K-562 leukemia
[5] = tested on: NCI-H226 lung
[6] = tested on: SF-295 CNS
[7] = tested on: SK-MEL-5 melanoma
[8] = tested on: ACHN renal
[9] = tested on: MDA-MB-435
[10] = tested on: TK-10 renal

| Compound | TGI [1] [µM] | TGI [2] [µM] | TGI [3] [µM] | TGI [4] [µM] | TGI [5] [µM] | TGI [6] [µM] | TGI [7] [µM] | TGI [8] [µM] | TGI [9] [µM] | TGI [10] [µM] | GI50 [8] [µM] | GI50 [1] [µM] | GI50 [2] [µM] | GI50 [3] [µM] | GI50 [4] [µM] | GI50 [9] [µM] | GI50 [5] [µM] | GI50 [6] [µM] | GI50 [7] [µM] | GI50 [10] [µM] |
| --- | --- | --- | --- | --- | --- | --- | --- | --- | --- | --- | --- | --- | --- | --- | --- | --- | --- | --- | --- | --- |
| O=C(NN1C(=O)CSC1c1ccc(C(F)(F)F)cc1)c1ccncc1 (centres undefined) | > 100 | > 100 | > 100 | > 100 | > 100 | > 100 | > 100 |  |  |  |  |  |  |  |  |  |  |  |  |  |
| C/C(=N\NC(=S)Nc1ccc(C)cc1)c1nc2ncccc2[nH]1 | 11.5 | 39.2 | 14.5 | 24.2 | 8.01 |  | 4.73 | 14.3 | 13.3 | 37 |  |  |  |  |  |  |  |  |  |  |
| COc1ccc(-c2c3c(nc4nc(SC)nc(SC)c24)CCCC3)cc1OC | 90.2 | > 100 | > 100 | > 100 | > 100 | > 100 | > 100 | > 100 | > 100 | > 100 |  |  |  |  |  |  |  |  |  |  |
| Nc1nc(N)c2[nH]cnc2n1 (tested in a mixture with another compound) | > 100 | > 100 | > 100 | > 100 | > 100 | > 100 | 85.3 | 48.6 | 77.5 | 80.7 |  |  |  |  |  |  |  |  |  |  |
| NC(=S)N/N=C1\c2ccccc2CCC1CCC1(O)CCc2ccccc2C1=O (centres undefined) | 86 | > 100 | 45.9 |  |  | 59 | 28.3 | > 100 | 46.4 | 54.3 |  |  |  |  |  |  |  |  |  |  |
| CCc1nnc(-c2nsc3ccccc23)s1 | > 100 | > 100 | > 100 | > 100 |  |  | > 100 | > 100 |  | > 100 |  |  |  |  |  |  |  |  |  |  |
| COc1cc2c(cc1OC)C(C)N(C)c1c-2c(OC(C)=O)cc2cc(OC)c(OC)cc12 (centres undefined) | > 100 | > 79.7 | > 58.9 | > 100 | > 44.1 | 53.4 | 15.8 | 97 | 35.6 | > 100 |  |  |  |  |  |  |  |  |  |  |
| O=S(=O)(O)c1ccc2c(N=Nc3ccc(F)cc3)c(O)c(S(=O)(=O)O)cc2c1 | > 100 | > 100 | > 100 | > 100 |  | > 100 | > 100 | > 100 | > 100 | > 100 |  |  |  |  |  |  |  |  |  |  |
| C=CCC1OC(=O)CCNC(=O)C(C)N(C)C(=O)C(C(C)C)N(C)C(=O)C(C(C)CC)NC(=O)C2CCCN2C1=O (centres undefined) (cyclo([X33]PI[NMeV][NMeA][βAla]); configuration not given here) | > 100 | > 100 | > 100 |  |  | > 100 | 6.12 | > 100 | > 100 | > 100 |  |  |  |  |  |  |  |  |  |  |
| C[C@]12CCc3sc(Nc4ccc(O)cc4)nc3C1=CC[C@@H]1[C@@H]2CC[C@]2(C)C(=O)CC[C@@H]12 | > 100 | 12.6 | 5.59 | > 100 | 8.52 | 35.9 | 31.9 | 9.29 | 5.32 | 4.4 | 2.92 | 2.47 | 3.28 | 2.13 | 2.96 | 2.08 | 2.86 | 5.26 | 4.33 | 2.01 |
| O=C(O)CC1(CC(=O)O)Nc2ccccc2SC1=O | > 100 | > 100 | > 100 | > 100 | > 100 | > 100 | > 100 | > 100 | > 100 | > 100 |  |  |  |  |  |  |  |  |  |  |
| CCSc1nc(=[N+]2CCCC2)ss1 | 13.2 | > 100 | > 92.1 | 24.1 | > 91.3 | > 100 | 3.55 | > 100 | 42.5 | > 100 |  |  |  |  |  |  |  |  |  |  |
| Clc1nc(NCCc2ccccc2)c2ncn(-c3ccccc3)c2n1 |  | 67.2 | 34.2 | 70.5 | 58.9 | > 100 | 32.5 | 92.7 | 35.1 | 71.2 |  |  |  |  |  |  |  |  |  |  |
| Cc1ccc(Nc2nc(NS(=O)(=O)c3cc(C(=O)Nc4ccc(Cl)cc4)c(Cl)cc3S)n[nH]2)cc1 | > 100 | > 100 | > 100 | > 100 |  | > 100 | > 100 | > 100 | > 100 | > 100 |  |  |  |  |  |  |  |  |  |  |
| O=C1OCC/C1=C/c1ccc(N=Nc2c(O)ccc3ccccc23)cc1 | 53.5 | 45.8 | 35 | > 100 | 36 | 47.8 | 50.8 | 31.8 | 56.5 | 35.3 |  |  |  |  |  |  |  |  |  |  |
| CN1CCN(c2cc(-c3cc4ccccc4o3)oc(=O)c2C#N)CC1 | > 100 |  | > 100 | > 100 | 60.7 | > 100 | > 100 | > 100 |  | > 100 |  |  |  |  |  |  |  |  |  |  |
| Cc1ccc2c(C)c3ccc4ccccc4c3c[n+]2c1 | 46.4 | 51.2 | > 100 | > 100 | 25.4 | > 81.1 | 25.4 | > 100 |  | > 100 |  |  |  |  |  |  |  |  |  |  |
| CC1OC1C(=O)C1(O)C(C)C(O)C23OC2(C(O)c2c(O)cccc2C3=O)C1O (centres undefined) |  | 0.462 | 0.629 | 0.776 | 0.838 | 0.693 | 0.534 |  |  |  |  |  |  |  |  |  |  |  |  |  |

— PubChem BioAssay (NCI)
